The IC50 is the concentration needed to halve the response being measured.

The target of the first assay is LC3B (Homo sapiens, UniProt Q9GZQ8). The experiment in a line: Fluorescence Polarization (FP) Assay: displacement of FITC-labeled peptide from GST-LC3B. The class given is binding.
Conditions: not given
How it is done:
The compounds of the present invention for regulating the autophagy-related protein LC3B were tested by Fluorescence Polarization (FP) Assay.
Fluorescence Polarization (FP) Assay Test
In turn, `CN(C)CCNC=C1C(=O)CC(c2cccc(F)c2F)CC1=O` (centres unmarked) [Compound 304, 5-(2,3-difluorophenyl)-2-(((2-(dimethylamino)ethyl)amino)methylene) cyclohexane-1,3-dione] showed an IC50 below 3 µM.

Still in this assay, the particulars now being: Fluorescence Polarization assay; GST-LC3B 180 nM, FITC-labeled peptide 18 nM, 25° C.; read-out: IC50.
In the case of `CN(C)C=C1C(=O)CC(c2ccnc3ccccc23)CC1=O` (centres unmarked) [Compound 285, 2-((dimethylamino)methylene)-5-(quinolin-4-yl)cyclohexane-1,3-dione], the IC50 lay within 3 to 15 µM.

Regarding `CN(C)C=C1C(=O)CC(c2n[nH]c3ccccc23)CC1=O` (centres unmarked) [Compound 286, 2-((dimethylamino)methylene)-5-(1H-indazol-3-yl)cyclohexane-1,3-dione], the IC50 is below 3 µM.

Take `CN(C)C=C1C(=O)CC(c2cncc3ccccc23)CC1=O` (centres unmarked) [Compound 287, 2-((dimethylamino)methylene)-5-(isoquinolin-4-yl)cyclohexane-1,3-dione]: the IC50 fell in the range of 3 to 15 µM.

On to `CN(C)C=C1C(=O)CC(c2cccn2Cc2ccccc2)CC1=O` (centres unmarked) [Compound 288, 5-(1-benzyl-1H-pyrrol-2-yl)-2-((dimethylamino)methylene) cyclohexane-1,3-dione], for which the IC50 lay in the range of 3 to 15 µM.

Consider `Cc1ccccc1Cc1ccccc1C1CC(=O)C(=CN(C)C)C(=O)C1` (centres unmarked) [Compound 289, 2-((dimethylamino)methylene)-5-(2-(2-methylbenzyl)phenyl) cyclohexane-1,3-dione], for which the IC50 lay in the range of 3 to 15 µM.

With `Cc1cccc(Cc2ccccc2C2CC(=O)C(=CN(C)C)C(=O)C2)c1` (centres unmarked) [Compound 290, 2-((dimethylamino)methylene)-5-(2-(3-methylbenzyl)phenyl) cyclohexane-1,3-dione], the IC50 lay within 3 to 15 µM.

`Cc1ccc(Cc2ccccc2C2CC(=O)C(=CN(C)C)C(=O)C2)cc1` (centres unmarked) [Compound 291, 2-((dimethylamino)methylene)-5-(2-(4-methylbenzyl)phenyl) cyclohexane-1,3-dione]: the IC50 fell in the range of 3 to 15 µM.

`Cc1ccc2c(C3CC(=O)C(=CN(C)C)C(=O)C3)c[nH]c2c1` (centres unmarked) [Compound 293, 2-((dimethylamino)methylene)-5-(6-methyl-1H-indol-3-yl)cyclohexane-1,3-dione]: the IC50 was in the range of 3 to 15 µM.

`CN(C)C=C1C(=O)CC(c2cn(C)c3ccccc23)CC1=O` (centres unmarked) [Compound 294, 2-((dimethylamino)methylene)-5-(1-methyl-1H-indol-3-yl)cyclohexane-1,3-dione]: the IC50 is below 3 µM.

As to `CN(C)C=C1C(=O)CC(c2cccc3c2ccn3C)CC1=O` (centres unmarked) [Compound 295, 2-((dimethylamino)methylene)-5-(1-methyl-1H-indol-4-yl)cyclohexane-1,3-dione], the IC50 lay in the range of 3 to 15 µM.

For `Cc1[nH]c2ccccc2c1C1CC(=O)C(=CN(C)C)C(=O)C1` (centres unmarked) [Compound 296, 2-((dimethylamino)methylene)-5-(2-methyl-1H-indol-3-yl)cyclohexane-1,3-dione], the IC50 was below 3 µM.

`Cc1cccc2c(C3CC(=O)C(=CN(C)C)C(=O)C3)c[nH]c12` (centres unmarked) [Compound 297, 2-((dimethylamino)methylene)-5-(7-methyl-1H-indol-3-yl)cyclohexane-1,3-dione]: the IC50 is below 3 µM.

Take `Cc1cccc2[nH]cc(C3CC(=O)C(=CN(C)C)C(=O)C3)c12` (centres unmarked) [Compound 298, 2-((dimethylamino)methylene)-5-(4-methyl-1H-indol-3-yl)cyclohexane-1,3-dione]: the IC50 was below 3 µM.

As for `Cc1ccc2[nH]cc(C3CC(=O)C(=CN(C)C)C(=O)C3)c2c1` (centres unmarked) [Compound 299, 2-((dimethylamino)methylene)-5-(5-methyl-1H-indol-3-yl)cyclohexane-1,3-dione], the IC50 lay in the range of 3 to 15 µM.

Take `CN(C)CCNC=C1C(=O)CC(c2ccccc2I)CC1=O` (centres unmarked) [Compound 300, 2-(((2-(dimethylamino)ethyl)amino)methylene)-5-(2-iodophenyl) cyclohexane-1,3-dione]: the IC50 is below 3 µM.

With `CN(C)CCNC=C1C(=O)CC(c2ccc(F)cc2F)CC1=O` (centres unmarked) [Compound 301, 5-(2,4-difluorophenyl)-2-(((2-(dimethylamino)ethyl)amino)methylene) cyclohexane-1,3-dione], the IC50 is below 3 µM.

Regarding `CN(C)CCNC=C1C(=O)CC(c2cc(F)ccc2F)CC1=O` (centres unmarked) [Compound 302, 5-(2,5-difluorophenyl)-2-(((2-(dimethylamino)ethyl)amino)methylene) cyclohexane-1,3-dione], the IC50 was below 3 µM.

For the compound `CN(C)CCNC=C1C(=O)CC(c2ccc(F)cc2Br)CC1=O` (centres unmarked) [Compound 305, 5-(2-bromo-4-fluorophenyl)-2-(((2-(dimethylamino)ethyl)amino)methylene) cyclohexane-1,3-dione], the 50% inhibitory concentration (IC50) is below 3 µM.

As to `CN(C)CCNC=C1C(=O)CC(c2c(F)cccc2Br)CC1=O` (centres unmarked) [Compound 306, 5-(2-bromo-6-fluorophenyl)-2-(((2-(dimethylamino)ethyl)amino)methylene) cyclohexane-1,3-dione], the IC50 was below 3 µM.

Consider `O=C1CC(c2ccccc2)CC(=O)C1=CNC(=O)c1ccccn1` (centres unmarked) [Compound 307, N-((2,6-dioxo-4-phenylcyclo-hexylidene)methyl) picolinamide], for which the IC50 lay in the range of 3 to 15 µM.

Turning to `CN(C)CCNC=C1C(=O)CC(c2ccccc2O)CC1=O` (centres unmarked) [Compound 308, 2-(((2-(dimethylamino)ethyl)amino)methylene)-5-(2-hydroxyphenyl) cyclohexane-1,3-dione], the IC50 lay in the range of 3 to 15 µM.

As for `COc1ccccc1C1CC(=O)C(=CNCCN(C)C)C(=O)C1` (centres unmarked) [Compound 310, 2-(((2-(dimethylamino)ethyl)amino)methylene)-5-(2-methoxyphenyl) cyclohexane-1,3-dione], the IC50 was below 3 µM.

For `CN(C)CCNC=C1C(=O)CC(c2cccc([N+](=O)[O-])c2)CC1=O` (centres unmarked) [Compound 311, 2-(((2-(dimethylamino)ethyl)amino)methylene)-5-(3-nitrophenyl) cyclohexane-1,3-dione], the IC50 was below 3 µM.

Turning to `O=C1CC(c2ccc3cc[nH]c3c2)CC(=O)C1=CNCCN1CCN(CCO)CC1` (centres unmarked) [Compound 315, 2-(((2-(4-(2-hydroxyethyl)piperazin-1-yl)ethyl)amino)methylene)-5-(1H-indol-6-yl)cyclohexane-1,3-dione], the IC50 is below 3 µM.

Regarding `O=C1Nc2ccc(C(F)(F)F)cc2C(=O)/C1=C/NCCN1CCN(CCO)CC1` [Compound 317, 3-(((2-(4-(2-hydroxyethyl)piperazin-1-yl)ethyl)amino)methylene)-6-(trifluoromethyl) quinoline-2,4(1H,3H)-dione], the IC50 lay in the range of 3 to 15 µM.

Consider `O=C1Nc2c(cccc2[N+](=O)[O-])C(=O)/C1=C/NCCN1CCN(CCO)CC1` [Compound 318, 3-(((2-(4-(2-hydroxyethyl)piperazin-1-yl)ethyl)amino)methylene)-8-nitroquinoline-2,4(1H,3H)-dione], for which the half-inhibitory concentration (IC50) was below 3 µM.

Consider `O=C1CC(c2ccccc2C(F)(F)F)CC(=O)C1=CNCCN1CCN(CCO)CC1` (centres unmarked) [Compound 320, 2-(((2-(4-(2-hydroxyethyl)piperazin-1-yl)ethyl)amino)methylene)-5-(2-(trifluoromethyl)phenyl) cyclohexane-1,3-dione], for which the IC50 is below 3 µM.

On to `O=C1Nc2c(cccc2-c2ccccc2)C(=O)/C1=C\NCCN1CCN(CCO)CC1` [Compound 321, 3-(((2-(4-(2-hydroxyethyl)piperazin-1-yl)ethyl)amino)methylene)-8-phenylquinoline-2,4(1H,3H)-dione], for which the IC50 was 3 to 15 µM.

For the origin of these results see patent publication US11319303B2 (WIGEN BIOMEDICINE TECHNOLOGY (SHANGHAI) CO., LTD., priority 2017, dated 2022).
